Measured values as given in patent US8063204B2, “Benzothiazole and benzoxazole linked pyrrolo[2,1-c] [1, 4] benzodiazepine hybrids as novel antitumour agents and process for the preparation thereof” (Council of Scientific & Industrial Research, priority 2007, dated 2011).

Experiments:
[1] = tested on: duplex-form calf thymus DNA (CT-DNA); assay: Thermal denaturation studies with calf thymus DNA (DNA binding affinity); conditions: [PBD]:[DNA] molar ratio 1:5, CT-DNA 100 μM, ligand 20 μM, sodium phosphate buffer pH 7.00; for ΔTm after incubation at 37° C. for 0 h: 0 h incubation; for ΔTm after incubation at 37° C. for 18 h: 18 h incubation
Description: Compounds have been subjected to thermal denaturation studies with duplex-form calf thymus DNA (CT-DNA) using an modification of a reported procedure (Newman, M. S. Carcinog-compr. Surv. 1976, 1, 203; (b) Hecht, S. S.; Loy, M.; Hoffman, Carcinog-compr. Surv. 1976, 1, 325). Working solutions in aqueous buffer (10 mM NaH2PO4/Na2HPO4, 1 mM Na2EDTA, pH 7.00+0.01) containing CT-DNA (100 μm in phosphate) and the PBD (20 μm) have been prepared by addition of concentrated PBD solutions in DMSO to obtain a fixed [PBD]/[DNA] molar ratio of 1:5. The DNA-PBD solutions have been incubated at 37° C. for 0 and 18 h prior to analysis. Samples have been monitored at 260 nm using a Beckman DU-800 spectrophotometer fitted with high performance temperature controller, and heated at 1° C. min^−1 in the 40-110° C. range. DNA helix→coil transition temperatures (Tm) have been obtained from the maxima in the d(A260)/dT derivative plots. Drug-induced alterations in DNA melting behavior are given by: ΔTm=Tm(DNA+PBD)−Tm(DNA alone), where the Tm value for the PBD-free CT-DNA is 69.1±0.01.
The DNA binding activity for these novel C8-linked benzothiazole, benzoxazole-PBD hybrids has been examined by thermal denaturation studies using calf thymus (CT) DNA. […] The data for the compounds 9a-h is included in Table 1 for comparison.

Prostate = assay: NCI in vitro anticancer screen, SRB assay, prostate panel; type: cell-based, human; conditions: average of six to nine cell lines, 48 h; for GI50: Homo sapiens, read-out: Log10 GI50 (converted)
Description: (§1) Anticancer activity: In vitro biological activity studies were carried out at the National Cancer Institute (USA).
(§2) The compounds were evaluated for in vitro anticancer activity against sixty human tumour cells derived from nine cancer types (leukemia, non-small-cell lung, colon, CNS, melanoma, ovarian, prostate, and breast cancer) as shown in Table 3. For each compound, dose response curves for each cell line were measured at a minimum of five concentrations at 10 fold dilutions. A protocol of 48 h continuous drug exposure was used and a sulforhodamine B (SRB) protein assay was used to estimate cell viability or growth. The concentration causing 50% cell growth inhibition (GI50), total cell growth inhibition (TGI 0% growth) and 50% cell death (LC50, −50% growth) compared with the control was calculated.

Leukemia = assay: NCI in vitro anticancer screen, SRB assay, leukemia panel; type: cell-based, human; conditions: average of six to nine cell lines, 48 h; for GI50: Homo sapiens, read-out: Log10 GI50 (converted)
Description: as §1, §2

Colon = assay: NCI in vitro anticancer screen, SRB assay, colon panel; type: cell-based, human; conditions: average of six to nine cell lines, 48 h; for GI50: Homo sapiens, read-out: Log10 GI50 (converted)
Description: as §1, §2

Non-small-cell-lung = assay: NCI in vitro anticancer screen, SRB assay, non-small-cell lung panel; type: cell-based, human; conditions: average of six to nine cell lines, 48 h; for GI50: Homo sapiens, read-out: Log10 GI50 (converted)
Description: as §1, §2

Breast = assay: NCI in vitro anticancer screen, SRB assay, breast panel; type: cell-based, human; conditions: average of six to nine cell lines, 48 h; for GI50: Homo sapiens, read-out: Log10 GI50 (converted)
Description: as §1, §2

Renal = assay: NCI in vitro anticancer screen, SRB assay, renal panel; type: cell-based, human; conditions: average of six to nine cell lines, 48 h; for GI50: Homo sapiens, read-out: Log10 GI50 (converted)
Description: as §1, §2

Melanoma = assay: NCI in vitro anticancer screen, SRB assay, melanoma panel; type: cell-based, human; conditions: average of six to nine cell lines, 48 h; for GI50: Homo sapiens, read-out: Log10 GI50 (converted)
Description: as §1, §2

[2] = tested on: sixty human tumour cells derived from nine cancer types; assay: cells; type: cell-based; conditions: for Log10GI50 mean graph midpoint (MG_MID) / Log10LC50 mean graph midpoint (MG_MID) / Log10TGI mean graph midpoint (MG_MID): 48 h continuous drug exposure, SRB, mean over human tumour cell lines; for log10 GI50 anticancer activity, range over nine cancer cell types: range across nine cancer cell type
Description: as §1, §2

Ovarian = assay: NCI in vitro anticancer screen, SRB assay, ovarian panel; type: cell-based, human; conditions: average of six to nine cell lines, 48 h; for GI50: Homo sapiens, read-out: Log10 GI50 (converted)
Description: as §1, §2

CNS = assay: NCI in vitro anticancer screen, SRB assay, CNS panel; type: cell-based, human; conditions: average of six to nine cell lines, 48 h; for GI50: Homo sapiens, read-out: Log10 GI50 (converted)
Description: as §1, §2

[3] = against nine human tumor cell lines

Structure (SMILES) | ΔTm after incubation at 37° C. for 0 h [1] | ΔTm after incubation at 37° C. for 18 h [1] | GI50 (Prostate) | GI50 (Leukemia) | GI50 (Colon) | GI50 (Non-small-cell-lung) | GI50 (Breast) | GI50 (Renal) | GI50 (Melanoma) | Log10GI50 mean graph midpoint (MG_MID) [2] | Log10LC50 mean graph midpoint (MG_MID) [2] | Log10TGI mean graph midpoint (MG_MID) [2] | log10 GI50 anticancer activity, range over nine cancer cell types [2] | GI50 (Ovarian) | GI50 (CNS) | further results
COc1cc2c(cc1O)N=CC1CCCN1C2=O (stereo not shown) [DC-81, reference compound] | 0.3 °C | 0.7 °C |  |  |  |  |  |  |  |  |  |  |  |  |  | 
COc1cc2c(cc1OCCCCCOc1ccc(-c3nc4ccccc4o3)cc1)N=C[C@@H]1CCCN1C2=O [Compound 9e, 7-Methoxy-8-{5-[4-(1,3-benzoxazol-2-yl)phenoxy]pentyl}oxy-(11aS) 1,2,3,11a-tetra-hydro-5H-pyrrolo[2,1-c][1,4]benzodiazepin-5-one] | 0.5 °C | 0.5 °C |  |  |  |  |  |  |  |  |  |  |  |  |  | 
COc1cc(-c2nc3ccccc3s2)ccc1OCCCCOc1cc2c(cc1OC)C(=O)N1CCC[C@H]1C=N2 [Compound 9b, 7-Methoxy-8-{4-[4-(1,3-benzothiazol-2-yl)-2-methoxyphenoxy]butyl}oxy-(11aS)-1,2,3,11a-tetrahydro-5H-pyrrolo[2,1-c][1,4]benzodiazepin-5-one] | 0.5 °C | 0.5 °C | 0.355 µM | 0.398 µM | 0.759 µM | 1.23 µM | 0.646 µM | 0.851 µM | 1.17 µM | −6.07 | −4.67 | −5.47 | −5.85 to −6.45 mole/lit | 1.41 µM | 1.02 µM | 
COc1cc2c(cc1OCCCCOc1ccc(-c3nc4ccccc4s3)cc1)N=C[C@@H]1CCCN1C2=O [Compound 9a, 7-Methoxy-8-{4-[4-(1,3-benzothiazol-2-yl)phenoxy]butyl}oxy-(11aS)-1,2,3,11a-tetrahydro-5H-pyrrolo[2,1-c][1,4]benzodiazepin-5-one] | 0.5 °C | 0.5 °C |  |  |  |  |  |  |  | −6.30 | −4.75 | −5.63 | −6.08 to −6.73 mole/lit |  |  | Log10 GI50 (Prostate): −6.55 mol/L; Log10 GI50 (Leukemia): −6.73 mol/L; Log10 GI50 (Colon): −6.38 mol/L; Log10 GI50 (Non-small-cell-lung): −6.12 mol/L; Log10 GI50 (Breast): −6.43 mol/L; Log10 GI50 (Renal): −6.33 mol/L; Log10 GI50 (Melanoma): −6.10 mol/L; LC50 (50% cell kill) ([2]; Homo sapiens, read-out: log10 LC50 mean graph midpoint value (converted)): 17.8 µM; log10 GI50 mean graph midpoint value [2, 3]: −6.30 mol/lit; log10 TGI mean graph midpoint value [2, 3]: −5.63 mol/lit; Log10 GI50 (Ovarian): −6.08 mol/L; Log10 GI50 (CNS): −6.20 mol/L
COc1cc2c(cc1OCCCCCOc1ccc(-c3nc4ccccc4s3)cc1)N=C[C@@H]1CCCN1C2=O [Compound 9c, 7-Methoxy-8-{5-[4-(1,3-benzothiazol-2-yl)phenoxy]pentyl}oxy-(11aS)-1,2,3,11a-tetrahydro-5H-pyrrolo[2,1-c][1,4]benzodiazepin-5-one] | 4.1 °C | 4.3 °C | 0.288 µM | 0.224 µM | 0.676 µM | 0.851 µM | 0.525 µM | 0.794 µM | 0.692 µM | −6.15 | −4.35 | −5.30 | −5.87 to −6.65 mole/lit | 1.35 µM | 1.12 µM | 
COc1cc(-c2nc3ccccc3s2)ccc1OCCCCCOc1cc2c(cc1OC)C(=O)N1CCC[C@H]1C=N2 [Compound 9d, 7-Methoxy-8-{5-[4-(1,3-benzothiazol-2-yl)-2-methoxyphenoxy]pentyl}oxy-(11aS)-1,2,3,11a-tetrahydro-5H-pyrrolo[2,1-c][1,4]benzodiazepin-5-one] | 6.2 °C | 6.3 °C | 0.0339 µM | 0.0309 µM | 0.0832 µM | 0.0955 µM | 0.0562 µM | 0.11 µM | 0.0832 µM | −7.09 | −4.37 | −5.78 | −6.79 to −7.51 mole/lit | 0.162 µM | 0.1 µM | 
COc1cc2c(cc1OCCCCCC(=O)Nc1ccc(-c3nc4ccccc4s3)cc1)N=C[C@@H]1CCCN1C2=O [Compound 9g, 7-Methoxy-8-{5-[N^1-(4-(1,3-benzothiazol-2-yl)phenyl)]pentanecarboxamide}oxy-(11aS)-1,2,3,11a-tetra-hydro-5H-pyrrolo[2,1-c][1,4]benzodiazepin-5-one] | 4.1 °C | 4.3 °C |  |  |  |  |  |  |  |  |  |  |  |  |  | 
COc1cc(-c2nc3ccccc3o2)ccc1OCCCCCOc1cc2c(cc1OC)C(=O)N1CCC[C@H]1C=N2 [Compound 9f, 7-Methoxy-8-{5-[4-(1,3-benzoxazol-2-yl)-2-methoxyphenoxy]pentyl}oxy-(11aS) 1,2,3,11a-tetra-hydro-5H-pyrrolo[2,1-c][1,4]benzodiazepin-5-one] | 2.1 °C | 4.2 °C |  |  |  |  |  |  |  |  |  |  |  |  |  | 
COc1cc2c(cc1OCCCCCC(=O)Nc1ccc(-c3nc4ccc(F)cc4s3)cc1)N=C[C@@H]1CCCN1C2=O [Compound 9h, 7-Methoxy-8-{5-[N^1-(4-(6-fluoro-1,3-benzothiazol-2-yl)phenyl)]pentanecarboxamide}oxy-(11aS)-1,2,3,11a-tetra-hydro-5H-pyrrolo[2,1-c][1,4]benzodiazepin-5-one] | 4.2 °C | 2.3 °C |  |  |  |  |  |  |  |  |  |  |  |  |  | 
